Laboratory results published in ChEMBL document CHEMBL1142084, “In vitro activities of tigecycline and eight other antimicrobials against different Nocardia species identified by molecular methods” (2007).
≈ marks a conversion by molar mass, not a printed value.

How the values were obtained:
Assay type in all cases: functional
Nocardia cyriacigeorgica = experiment: Antimicrobial activity against Nocardia cyriacigeorgica after 72 hrs by microdilution method
Nocardia abscessus = experiment: Antimicrobial activity against Nocardia abscessus after 72 hrs by microdilution method
Nocardia brasiliensis = experiment: Antimicrobial activity against Nocardia brasiliensis after 72 hrs by microdilution method
Nocardia transvalensis = experiment: Antimicrobial activity against Nocardia transvalensis after 72 hrs by microdilution method
Nocardia nova = experiment: Antimicrobial activity against Nocardia nova after 72 hrs by microdilution method
Nocardia beijingensis = experiment: Antimicrobial activity against Nocardia beijingensis after 72 hrs by microdilution method
[1] = system: Nocardia otitidiscaviarum; experiment: Antimicrobial activity against Nocardia otitidiscaviarum after 72 hrs by microdilution method
Nocardia carnea = experiment: Antimicrobial activity against Nocardia carnea after 72 hrs by microdilution method
Nocardia farcinica = experiment: Antimicrobial activity against Nocardia farcinica after 72 hrs by microdilution method
Nocardia veterana = experiment: Antimicrobial activity against Nocardia veterana after 72 hrs by microdilution method
Nocardia sp. = experiment: Antimicrobial activity against Nocardia sp. after 72 hrs by microdilution method

Row | Compound | MIC (Nocardia cyriacigeorgica) | MIC (Nocardia abscessus) | MIC (Nocardia brasiliensis) | MIC (Nocardia transvalensis) | MIC (Nocardia nova) | MIC (Nocardia beijingensis) | MIC [1] | MIC (Nocardia carnea) | MIC (Nocardia farcinica) | MIC (Nocardia veterana) | MIC (Nocardia sp.)
1 | NCC[C@H](O)C(=O)N[C@@H]1C[C@H](N)[C@@H](O[C@H]2O[C@H](CN)[C@@H](O)[C@H](O)[C@H]2O)[C@H](O)[C@H]1O[C@H]1O[C@H](CO)[C@@H](O)[C@H](N)[C@H]1O [AMIKACIN] | ≤ 0.06 µg/mL | ≤ 0.06 µg/mL | 1 µg/mL (≈ 1.71 µM) | 32 µg/mL (≈ 54.6 µM) | 0.12 µg/mL (≈ 0.205 µM) | ≤ 0.06 µg/mL | 1 µg/mL (≈ 1.71 µM) | 0.5 µg/mL (≈ 0.854 µM) | 1 µg/mL (≈ 1.71 µM) | 0.25 µg/mL (≈ 0.427 µM) | 0.25 µg/mL (≈ 0.427 µM)
2 | C[C@@H](O)[C@H]1C(=O)N2C(C(=O)O)=C(S[C@@H]3CN[C@H](C(=O)Nc4cccc(C(=O)O)c4)C3)[C@H](C)[C@H]12 [ERTAPENEM] | ≤ 0.06 µg/mL | 0.5 µg/mL (≈ 1.05 µM) | 2 µg/mL (≈ 4.21 µM) | > 64 µg/mL | 0.5 µg/mL (≈ 1.05 µM) | 2 µg/mL (≈ 4.21 µM) | 1 µg/mL (≈ 2.1 µM) | 2 µg/mL (≈ 4.21 µM) | 4 µg/mL (≈ 8.41 µM) | 0.25 µg/mL (≈ 0.526 µM) | 0.25 µg/mL (≈ 0.526 µM)
3 | C[C@@H](O)[C@H]1C(=O)N2C(C(=O)O)=C(SCCNC=N)C[C@H]12 [IMIPENEM ANHYDROUS] | ≤ 0.06 µg/mL | 0.5 µg/mL (≈ 1.67 µM) | 1 µg/mL (≈ 3.34 µM) | > 64 µg/mL | 0.12 µg/mL (≈ 0.401 µM) | 0.5 µg/mL (≈ 1.67 µM) | 0.5 µg/mL (≈ 1.67 µM) | 0.5 µg/mL (≈ 1.67 µM) | 1 µg/mL (≈ 3.34 µM) | ≤ 0.06 µg/mL | ≤ 0.06 µg/mL
4 | CC(=O)NC[C@H]1CN(c2ccc(N3CCOCC3)c(F)c2)C(=O)O1 [LINEZOLID] | 0.12 µg/mL (≈ 0.356 µM) | ≤ 0.06 µg/mL | 1 µg/mL (≈ 2.96 µM) | 1 µg/mL (≈ 2.96 µM) | 0.12 µg/mL (≈ 0.356 µM) | ≤ 0.06 µg/mL | ≤ 0.06 µg/mL | ≤ 0.06 µg/mL | 0.12 µg/mL (≈ 0.356 µM) | 0.25 µg/mL (≈ 0.741 µM) | ≤ 0.06 µg/mL
5 | C[C@@H](O)[C@H]1C(=O)N2C(C(=O)O)=C(S[C@@H]3CN[C@H](C(=O)N(C)C)C3)[C@H](C)[C@H]12 [MEROPENEM] | ≤ 0.06 µg/mL | 0.25 µg/mL (≈ 0.652 µM) | 1 µg/mL (≈ 2.61 µM) | > 64 µg/mL | 0.5 µg/mL (≈ 1.3 µM) | 2 µg/mL (≈ 5.22 µM) | 1 µg/mL (≈ 2.61 µM) | 1 µg/mL (≈ 2.61 µM) | 2 µg/mL (≈ 5.22 µM) | 0.12 µg/mL (≈ 0.313 µM) | ≤ 0.06 µg/mL
6 | CN(C)c1ccc(O)c2c1C[C@H]1C[C@H]3[C@H](N(C)C)C(O)=C(C(N)=O)C(=O)[C@@]3(O)C(O)=C1C2=O [MINOCYCLINE] | ≤ 0.06 µg/mL | ≤ 0.06 µg/mL | 1 µg/mL (≈ 2.19 µM) | 1 µg/mL (≈ 2.19 µM) | 1 µg/mL (≈ 2.19 µM) | ≤ 0.06 µg/mL | 0.5 µg/mL (≈ 1.09 µM) | 0.5 µg/mL (≈ 1.09 µM) | 1 µg/mL (≈ 2.19 µM) | 1 µg/mL (≈ 2.19 µM) | 0.25 µg/mL (≈ 0.546 µM)
7 | COc1c(N2C[C@@H]3CCCN[C@@H]3C2)c(F)cc2c(=O)c(C(=O)O)cn(C3CC3)c12 [MOXIFLOXACIN] | ≤ 0.06 µg/mL | 1 µg/mL (≈ 2.49 µM) | ≤ 0.06 µg/mL | 0.12 µg/mL (≈ 0.299 µM) | 2 µg/mL (≈ 4.98 µM) | ≤ 0.06 µg/mL | ≤ 0.06 µg/mL | ≤ 0.06 µg/mL | ≤ 0.06 µg/mL | 0.5 µg/mL (≈ 1.25 µM) | ≤ 0.06 µg/mL
8 | CN(C)c1cc(NC(=O)CNC(C)(C)C)c(O)c2c1C[C@H]1C[C@H]3[C@H](N(C)C)C(O)=C(C(N)=O)C(=O)[C@@]3(O)C(O)=C1C2=O [TIGECYCLINE] | ≤ 0.06 µg/mL | ≤ 0.06 µg/mL | ≤ 0.06 µg/mL | 2 µg/mL (≈ 3.41 µM) | 0.5 µg/mL (≈ 0.854 µM) | 0.25 µg/mL (≈ 0.427 µM) | ≤ 0.06 µg/mL | ≤ 0.06 µg/mL | 1 µg/mL (≈ 1.71 µM) | 0.12 µg/mL (≈ 0.205 µM) | ≤ 0.06 µg/mL
